target: T1, Mucosa-associated lymphoid tissue lymphoma translocation protein 1 (Homo sapiens, UniProt Q9UDY8); experiment: MALT-1 Inhibition Assay
T1 sequence (Q9UDY8 whole entry): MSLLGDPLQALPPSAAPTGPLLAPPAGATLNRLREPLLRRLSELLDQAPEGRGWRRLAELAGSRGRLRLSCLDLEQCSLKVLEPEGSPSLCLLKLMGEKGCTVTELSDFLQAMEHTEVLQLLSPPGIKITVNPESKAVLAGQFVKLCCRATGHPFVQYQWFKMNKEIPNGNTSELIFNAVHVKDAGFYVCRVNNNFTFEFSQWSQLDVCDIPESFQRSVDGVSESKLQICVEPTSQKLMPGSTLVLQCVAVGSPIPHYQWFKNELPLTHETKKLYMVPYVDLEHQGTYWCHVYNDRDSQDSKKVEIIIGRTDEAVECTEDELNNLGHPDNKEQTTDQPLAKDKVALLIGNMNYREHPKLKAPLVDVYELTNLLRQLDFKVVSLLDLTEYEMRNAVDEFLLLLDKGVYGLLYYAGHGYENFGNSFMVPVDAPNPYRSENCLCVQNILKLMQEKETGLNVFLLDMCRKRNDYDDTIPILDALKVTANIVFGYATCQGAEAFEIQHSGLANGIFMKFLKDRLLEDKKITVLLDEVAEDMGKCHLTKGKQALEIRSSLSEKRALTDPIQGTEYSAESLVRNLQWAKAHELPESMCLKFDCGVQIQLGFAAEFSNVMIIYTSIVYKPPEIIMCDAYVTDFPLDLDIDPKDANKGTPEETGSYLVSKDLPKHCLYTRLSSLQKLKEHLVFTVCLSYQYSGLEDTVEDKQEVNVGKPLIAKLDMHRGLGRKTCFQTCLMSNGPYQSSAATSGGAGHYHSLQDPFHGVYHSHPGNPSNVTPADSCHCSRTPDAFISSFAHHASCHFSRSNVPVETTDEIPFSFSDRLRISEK
Experimental: MALT-1 paracaspase activity was measured using the fluorogenic substrate Ac-LRSR-Rh110-DP (purchased from Biosantan GmbH). Proteolytic cleavage of the peptide—rhodamine conjugate results in an increase of rhodamine fluorescence which is inhibited by test compounds. Test compounds were diluted in DMSO in a series of 10 semi-log step doses, 15 nL of each compound dose were dispensed in 384 well polypropylene plates (HiBase non-binding, Greiner Bio-One cat #784900). All other assay components were diluted to appropriate working concentrations in assay buffer composed of: 200 mM Tris-HCl (pH 7.5; Sigma-Aldrich cat #T2663-1L), 0.1 mM EGTA (Sigma-Aldrich cat #E3889-10G), 0.05% CHAPS—Sigma-Aldrich cat #C9426-1G), 1 mM TCEP (Sigma-Aldrich cat #646547-10×1 mL), 0.8 M sodium citrate (Sigma-Aldrich cat #S1804-500G). Recombinant human MALT-1 (amino acids 340-824, accession NP_006776.1) was added to compound doses and equilibrated for 40 minutes at rt. The reaction was initiated by addition of substrate. Final concentrations of MALT-1 and substrate were 3 nM and 10 μM respectively. Reactions were incubated in the dark for 60 minutes at 25° C. Fluorescence was measured in a PHERAstar FSX plate reader (BMG LABTECH) with optical setup for excitation at 485 nm and emission at 520 nm, focal height of 11.8 mm, 20 flashes, gain 300. Percent inhibition values were calculated from relative fluorescence units at different doses and fitted to a 4-parameter logistic curve to determine IC50 values.

| SMILES | IC50 [µM] |
| --- | --- |
| COc1ccc2ncc(Nc3ccc([C@H](N(C)C(=O)[C@H]4CC[S@+]([O-])CC4)C(F)(F)F)cc3)c([C@H](C)OC)c2n1 (relative stereo) [US20250051327, Reference CPD0072936] | 0.068 |
| COC[C@]1(C)CCN(c2ccc([C@H](N(C)C(=O)C3CCS(=O)(=O)CC3)C(F)(F)F)cc2)c2cnc3cc(Cl)nn3c21 [US20250051327, Reference CPD0073140] | 0.092 |
| COc1ccc2ncc(Nc3ccc([C@H](N(C)C(=O)C4CCS(=O)(=O)CC4)C(F)(F)F)cc3)c([C@@H](C)OC)c2n1 (relative stereo) [US20250051327, Reference CPD0019171] | 0.196 |
| COc1ccc2ncc(Nc3ccc([C@H](N(C)C(=O)C4CCS(=O)(=O)CC4)C(F)(F)F)cc3)c([C@H](C)OC)c2n1 (relative stereo) [US20250051327, Reference CPD0019170] | 0.065 |
| COc1ccc2ncc(Nc3ccc([C@H](N(C)C(=O)C4CCS(=O)(=O)CC4)C(F)(F)F)cn3)c([C@@H](C)OC)c2n1 (relative stereo) [US20250051327, Reference CPD0019006] | 0.139 |
| CN(C(=O)C1CCS(=O)(=O)CC1)[C@@H](c1ccc(N2CCC3(CC3)c3c2cnc2cc(Cl)nn32)nc1)C(F)(F)F [US20250051327, Reference CPD0021660] | 0.087 |
| CO[C@@H](C)c1c(Nc2ccc([C@H](N(C)C(=O)[C@H]3CNC(=O)C3)C(F)(F)F)cc2)cnn2cc(Cl)nc12 (relative stereo) [US20250051327, Reference CPD0082467] | 0.042 |
| CN(C(=O)[C@@H]1CS(=O)(=O)CC12COC2)[C@@H](c1ccc(N2CCCc3c2cnc2cc(Cl)nn32)cc1)C(F)(F)F [US20250051327, Reference CPD0073974] | 0.155 |
| COc1ccc2ncc(Nc3ccc([C@H](N(C)C(=O)[C@H]4CC[S@@+]([O-])CC4)C(F)(F)F)cc3)c([C@H](C)OC)c2n1 (relative stereo) [US20250051327, Reference CPD0072935] | 0.075 |
| COc1ccc2ncc(Nc3ccc([C@H](N(C)C(=O)C4CCS(=O)(=O)CC4)C(F)(F)F)cc3)c([C@@H]3CCCO3)c2n1 (relative stereo) [US20250051327, Reference CPD0074044] | 0.218 |
| O=C(CC1CS(=O)(=O)C1)N[C@@H](c1ccc(N2CCCc3c2cnc2cc(Cl)nn32)cc1)C(F)(F)F [US20250051327, Reference CPD0073535] | 0.403 |
| CN(C(=O)[C@H]1CC[S@@](=N)(=O)CC1)[C@@H](c1ccc(N2CC(C)(C)Cc3c2cnc2cc(Cl)nn32)cc1)C(F)(F)F [US20250051327, Reference CPD0073498] | 0.053 |
| CN(C(=O)C1CCS(=O)(=O)CC1)[C@@H](c1ccc(N2CCCc3c2cnc2cc(Cl)nn32)nc1)C(F)(F)F [US20250051327, Reference CPD0019212] | 0.313 |
| COC[C@@H]1CCN(c2ccc([C@H](N(C)C(=O)C3CCS(=O)(=O)CC3)C(F)(F)F)cc2)c2cnc3cc(Cl)nn3c21 [US20250051327, Reference CPD0073503] | 0.115 |
| COc1ccc2ncc(Nc3ccc([C@H](N(C)C(=O)[C@H]4CCC(=O)N4)C(F)(F)F)cc3)c([C@H](C)OC)c2n1 (relative stereo) [US20250051327, Reference CPD0075581] | 0.037 |
| CN(C(=O)C1CCS(=O)(=O)CC1)[C@@H](c1ccc(N2CCC3(CC3)c3c2cnc2cc(Cl)nn32)cc1)C(F)(F)F [US20250051327, Reference CPD0019590] | 0.064 |
| COc1ccc2ncc(Nc3ccc([C@H](N(C)C(=O)C4CCS(=O)(=O)CC4)C(F)(F)F)cc3)c(C3(OC)COC3)c2n1 [US20250051327, Reference CPD0076414] | 0.124 |
| CN(C(=O)[C@@H]1CCN(C(=O)CC#N)C1)[C@@H](c1ccc(N2CCCc3c2cnc2cc(Cl)nn32)cc1)C(F)(F)F [US20250051327, Reference CPD0073190] | 0.114 |
| COc1ccc2ncc(Nc3ccc([C@H](N(C)C(=O)[C@H]4CNC(=O)C4)C(F)(F)F)cc3)c([C@H](C)OC)c2n1 (relative stereo) [US20250051327, Reference CPD0074562] | 0.079 |
| COc1ccc2ncc(Nc3ccc([C@H](N(C)C(=O)C4CCS(=O)(=O)CC4)C(F)(F)F)cc3)c([C@H]3CCOC3)c2n1 [US20250051327, Reference CPD0074039] | 0.138 |

Continued, values first:

| IC50 [µM] | SMILES |
| --- | --- |
| 0.076 | COc1ccc2ncc(Nc3ccc([C@H](N(C)C(=O)[C@@H]4CNC(=O)C4)C(F)(F)F)cc3)c([C@H]3CCOC3)c2n1 (relative stereo) [US20250051327, Reference CPD0084144] |
| 0.072 | COc1ccc2ncc(Nc3ccc([C@H](N(C)C(=O)[C@H]4CNC(=O)C4)C(F)(F)F)cc3)c([C@H]3CCOC3)c2n1 (relative stereo) [US20250051327, Reference CPD0084143] |
| 0.065 | CO[C@@H](C)c1c(Nc2ccc([C@H](N(C)C(=O)C3CN(S(C)(=O)=O)C3)C(F)(F)F)cc2)cnn2cc(Cl)nc12 [US20250051327, Reference CPD0084936] |
| 0.107 | COc1ccc2ncc(Nc3ccc([C@H](N(C)C(=O)C4CCS(=O)(=O)CC4)C(F)(F)F)cc3)c([C@H]3CCCO3)c2n1 (relative stereo) [US20250051327, Reference CPD0074043] |
| 0.045 | CO[C@@H](C)c1c(Nc2ccc([C@H](N(C)C(=O)[C@@H]3CCN(C(=O)CO)C3)C(F)(F)F)cc2)cnn2cc(Cl)nc12 (relative stereo) [US20250051327, Reference CPD0084140] |
| 0.112 | COC[C@@]1(C)CCN(c2ccc([C@H](N(C)C(=O)C3CCS(=O)(=O)CC3)C(F)(F)F)cc2)c2cnc3cc(Cl)nn3c21 [US20250051327, Reference CPD0073139] |
| 0.052 | CO[C@@H](C)c1c(Nc2ccc([C@H](N(C)C(=O)[C@H]3CCN(C(=O)CO)C3)C(F)(F)F)cc2)cnn2cc(Cl)nc12 (relative stereo) [US20250051327, Reference CPD0084139] |
| 0.044 | C[C@H]1CCN(c2ccc([C@H](N(C)C(=O)[C@H]3CC[S@@](=N)(=O)CC3)C(F)(F)F)cc2)c2cnc3cc(F)nn3c21 (relative stereo) [US20250051327, Reference CPD0074554] |
| 0.081 | COc1ccc2ncc(Nc3ccc([C@H](N(C)C(=O)[C@@H]4CNC(=O)C4)C(F)(F)F)cc3)c([C@H](C)OC)c2n1 (relative stereo) [US20250051327, Reference CPD0074550] |
| 0.037 | CO[C@@H](C)c1c(Nc2ccc([C@H](N(C)C(=O)[C@H]3CCC(=O)NC3)C(F)(F)F)cc2)cnn2cc(Cl)nc12 (relative stereo) [US20250051327, Reference CPD0082471] |
| 0.057 | CN(C(=O)[C@H]1C[C@@H]([S@@+](C)(=N)[O-])C1)[C@@H](c1ccc(N2CCCc3c2cnc2cc(Cl)nn32)cc1)C(F)(F)F [US20250051327, Reference CPD0073223] |
| 0.182 | COc1ccc2ccc(Nc3ccc([C@H](N(C)C(=O)C4CCS(=O)(=O)CC4)C(F)(F)F)cc3)cc2n1 [US20250051327, Reference CPD0019078] |
| 0.242 | COc1ccc2ncc(Nc3ccc([C@H](N(C)C(=O)C4CCS(=O)(=O)CC4)C(F)(F)F)cn3)c(C(C)OC)c2n1 (stereo partly specified) [US20250051327, Reference CPD0019007] |
| 0.096 | CN(C(=O)[C@H]1CCN(C(=O)CC#N)C1)[C@@H](c1ccc(N2CCCc3c2cnc2cc(Cl)nn32)cc1)C(F)(F)F [US20250051327, Reference CPD0073191] |
| 0.041 | COc1ccc2ncc(Nc3ccc([C@H](N(C)C(=O)[C@@H]4CNC(=O)C4)C(F)(F)F)cc3)c([C@@H]3CCOC3)c2n1 [US20250051327, Reference CPD0084142] |
| 0.041 | COc1ccc2ncc(Nc3ccc([C@H](N(C)C(=O)[C@H]4CNC(=O)C4)C(F)(F)F)cc3)c([C@@H]3CCOC3)c2n1 (relative stereo) [US20250051327, Reference CPD0082477] |

Reference: BindingDB's records for patent US20250051327 (Exscientia AI, 2025)
